These results are taken from PubChem BioAssay AID1963843 (Molecular Pharmacology Branch, DTP, NCI, 2024).

The assay deals with 616215-338-R-J1-PDC complex spheroid viability. Nature of the assay: Anticancer human tumor 616215-338-R-J1-PDC patient-derived colon adenocarcinoma cell line growth inhibition [POLQ]. Particulars: for viability, T/C: stronger effect = lower value. The procedure: Multicellular complex tumor spheroid response to Polymerase (POL) inhibitors (novobiocin, ART-558, RP6685) in combination with a variety of drugs and investigational agents in selected tumor cell lines
The POL inhibitors (novobiocin, ART-558, and RP6685) were evaluated both individually and in combination with standard of care and investigational anticancer small molecules within a complex spheroid model of solid tumors. . Complex spheroids include a stromal component modeled by human endothelial cells (HUVEC) and fibroblasts modeled by human mesenchymal stem cells (MSCs). The concentration ranges selected for each drug and investigational agent were based upon clinically achievable concentrations if the clinical Cmax of the agent was known.
Compounds. The drugs and investigational agents: novobiocin (NSC847541), ART-558 (NSC835418), RP-6685 (NSC848927), peposertib (NSC802822), ceralasertib (NSC780249), elimusertib (NSC800525), camonsertib (NSC841442), AZD-1390 (NSC803789), olaparib (NSC753686), talazoparib (NSC767125), rucaparib (NSC756644), sotorasib (NSC818433), MRTX-1133 (NSC836407), SN-38 (NSC673596), topotecan (NSC609699), epotoside (NSC141540), doxorubicin (NSC123127), gemcitabine (NSC613327), 5-fluorouracil (NSC19893), paclitaxel (NSC125973), vemurafenib (NSC761431), MSA-2 (NSC828583), SN-011 (NSC837082), adavosertib (NSC754352), prexasertib (NSC758257), carboplatin (NSC241240) and oxaliplatin (NSC266046), were obtained from the National Cancer Institute (NCI) Developmental Therapeutics Program Chemical Repository (21). The FDA-approved anticancer drug set is available from the Developmental Therapeutics Program at https://dtp.cancer.gov/organization/dscb/obtaining/. […] The stock solutions were prepared in dimethyl sulfoxide (DMSO, Sigma-Aldrich, St. Louis, MO, cat. D2650), except for the platinum compounds which were prepared in saline (Quality Biological, Gaithersburg, MD, cat. 114-055-101), at 800-fold the tested concentration and stored at -70 degrees C prior to their use. All drugs and investigational agents were tested over a range starting from a high concentration at or near the clinical Cmax and decreasing in half-log increments. If the clinical Cmax for an agent had not been determined, the highest concentration tested was 10 microM, except for SN-38, which was tested at a high concentration of 1 microM.
Cell Culture. All cells were maintained in an incubator at 37 degrees C and 5% CO2 with 95% humidity. The PDC lines were cultured according to standard operating procedures established by the NCI PDMR (https://pdmr.cancer.gov). Table 3 of the manuscript, lists the cell lines along with the number of the three cell types plated to form the mct-spheroids and media for tumor cell growth. After thawing, all PDC lines, except 997537-175-T-J1-PDC and 415267-285-R-J2-PDC, were cultured in Matrigel-coated flasks prepared with a working solution of 1X Ham's F-12 nutrient mix, without supplementation (Thermo Fisher Scientific, cat. 11765054), 100 U/mL penicillin-streptomycin (Thermo Fisher Scientific, cat. 15140122), and 2.5% Matrigel (Corning Inc., Corning, NY, cat. 354248) for the first three passages. The two PDC lines 997537-175-T-J1-PDC and 415267-285-R-J2-PDC were cultured on uncoated flasks. The 857933-349-R-J2-PDC line was cultured in 6C/Colon 1B media containing advanced DMEM/F-12 (Thermo Fisher Scientific, cat. 12634028), 10 mM HEPES (Thermo Fisher Scientific, cat. 15630080), 1X GlutaMAX supplement (Thermo Fisher Scientific, cat. 35050061), 0.1 mg/mL primocin (InvivoGen, San Diego, CA, cat. ant-pm-2), 10% defined fetal bovine serum, heat inactivated (HyClone Laboratories Inc., Logan, UT, cat. SH30070.03HI), 50% L-WRN conditioned media (ATCC, cat. CRL-3276), 1.25 mM N-Acetyl-L-cysteine (Sigma-Aldrich, cat. A9165), 10 mM nicotinamide (Sigma-Aldrich, cat. N0636), 1X B-27 supplement (Thermo Fisher Scientific, cat. 17504044), 1X N-2 supplement (Thermo Fisher Scientific, cat. […]

Setting [1] is: compound alone, run of 12/05/2023.

Each structure is given as a SMILES string. Where “and” joins values, the source holds several entries; their conditions need not be identical. Equal values may be shown once. A value given as a limit tells only on which side of the number the result lay.

As usually defined, the viability, T/C is the ratio of treated to control. For orientation: IC50 means the concentration that inhibits the measured activity by half.
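Further: spheroids exposed to compounds for one week before readout.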
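Wherever viability, T/C is given: percent viability relative to DMSO vehicle wells taken as 100%.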

`COc1cc(C2c3cc4c(cc3C(OC3OC5COC(C)OC5C(O)C3O)C3COC(=O)C23)OCO4)cc(OC)c1O` (stereo not given): the viability, T/C runs as follows: (compound 0.0316 µM) 96.8% and 101% and 99.5%; (compound 0.1 µM) 107% and 95.5% and 104%; (compound 0.316 µM) 86.7% and 58% and 91.3%; (compound 1 µM) 88.7% and 52.2% and 78.8%; (compound 3.16 µM) 76.6% and 46.9% and 73%; (compound 10 µM) 46.8% and 28.6% and 54.6%. In addition, the 50% inhibitory concentration (IC50) (curve of compound) was 9060 nM and 1040 nM and > 10000 nM.
Turning to `COc1ccc([C@@H](O)c2cc(-c3ncnc4cc(N5CCOCC5)ccc34)c(F)cc2Cl)nn1`, the viability, T/C reads like this: (compound 0.0316 µM) 115% and 87.7% and 103%; (compound 0.1 µM) 107% and 104% and 100%; (compound 0.316 µM) 105% and 93.9% and 110%; (compound 1 µM) 93.6% and 86.9% and 104%; (compound 3.16 µM) 100% and 81.2% and 104%; (compound 10 µM) 69.3% and 54.8% and 75.3%. The IC50 (curve of compound) was above 10000 nM.
Consider `COc1cccc(OCCCN)c1-c1cc(Nc2cnc(C#N)cn2)n[nH]1`, for which the viability, T/C (compound 0.00316 µM) was 95.5% and 106% and 104%; the viability, T/C (compound 0.01 µM) was 101% and 98.7% and 97.4%; the viability, T/C (compound 0.0316 µM) was 88.6% and 68.9% and 76.7%; the viability, T/C (compound 0.1 µM) is 86.1% and 63.8% and 55.3%; the viability, T/C (compound 0.316 µM) was 64.6% and 33.6% and 49.9%; the viability, T/C (compound 1 µM) was 55.9% and 30.1% and 34.7%. For the same compound, under “curve of compound”, the concentration for half-maximal inhibition (IC50) was > 1000 nM and 150 nM and 201 nM.
Regarding `COc1cccc2c1C(=O)c1c(O)c3c(c(O)c1C2=O)CC(O)(C(=O)CO)CC3OC1CC(N)C(O)C(C)O1` (stereo not given), the viability, T/C is 95.8% and 65% and 107% (compound 0.0316 µM); 89.2% and 52.3% and 101% (compound 0.1 µM); 78.2% and 37.8% and 76.8% (compound 0.316 µM); 60.1% and 25.3% and 60.5% (compound 1 µM); 7.28% and 2.34% and 9.83% (compound 3.16 µM); 0.55% and 0.17% and 0.93% (compound 10 µM). Moreover, under “curve of compound”, the IC50 is 1190 nM and 133 nM and 1060 nM.
As for `Cc1cccc(N(C)C(=O)C2C(O)CCN2c2nc(C)cc(C(F)(F)F)c2C#N)c1` (stereo not given), the viability, T/C (compound 0.0316 µM) was 97.4% [middle of 13 runs]; the viability, T/C (compound 0.1 µM) is 99% [middle of 13 runs]; the viability, T/C (compound 0.316 µM) was 100% [middle of 13 runs]; the viability, T/C (compound 1 µM) is 105% [middle of 13 runs]; the viability, T/C (compound 3.16 µM) was 104% [middle of 13 runs]; the viability, T/C (compound 10 µM) is 102% [middle of 12 runs]. For the same compound, the 50% inhibitory concentration (IC50) was above 10000 nM (compound alone, run of 11/27/2023) and above 10000 nM under setting [1].
Take `Cn1ncnc1[C@H]1c2n[nH]c(=O)c3cc(F)cc(c23)N[C@@H]1c1ccc(F)cc1`: the viability, T/C is 90.3% and 102% and 97.5% (compound 0.000316 µM); 104% and 91.8% and 103% (compound 0.001 µM); 102% and 98.1% and 97.2% (compound 0.00316 µM); 94% and 95.9% and 104% (compound 0.01 µM); 110% and 96.1% and 101% (compound 0.0316 µM); 105% and 87.5% and 106% (compound 0.1 µM). In addition, the IC50 (curve of compound) was above 100 nM.
With `Nc1ccc(C#CCN(C(=O)Cc2ncc(C(F)(F)F)cc2C(F)(F)F)c2ccc(F)cc2)nn1`, the viability, T/C is, setting by setting: (compound 0.0316 µM) 103% [middle of 13 runs]; (compound 0.1 µM) 104% [middle of 13 runs]; (compound 0.316 µM) 105% [middle of 13 runs]; (compound 1 µM) 102% [middle of 13 runs]; (compound 3.16 µM) 102% [middle of 13 runs]; (compound 10 µM) 94.5% [middle of 13 runs]. The concentration for half-maximal inhibition (IC50) under setting [1] is above 10000 nM.
With `Nc1ccn(C2OC(CO)C(O)C2(F)F)c(=O)n1` (stereo not given), the viability, T/C runs as follows: (compound 0.0316 µM) 49.9% and 23.8% and 51.6%; (compound 0.1 µM) 31.7% and 15.1% and 34.2%; (compound 0.316 µM) 23.7% and 12.2% and 23.2%; (compound 1 µM) 30.1% and 13.1% and 30.2%; (compound 3.16 µM) 31.8% and 14.3% and 32.1%; (compound 10 µM) 34.7% and 16.4% and 33.6%. Besides, the IC50 (curve of compound) is below 31.6 nM.
On to `O=C(c1cc(Cc2n[nH]c(=O)c3ccccc23)ccc1F)N1CCN(C(=O)C2CC2)CC1`, for which the viability, T/C (compound 0.0316 µM) is 89.5% and 67.6% and 97.3%; the viability, T/C (compound 0.1 µM) was 103% and 72.8% and 110%; the viability, T/C (compound 0.316 µM) is 102% and 71.6% and 106%; the viability, T/C (compound 1 µM) was 101% (2×) and 72.6%; the viability, T/C (compound 3.16 µM) was 101% and 73.1% and 87.7%; the viability, T/C (compound 10 µM) was 99.3% and 58.1% and 60.9%. For the same compound, where the note is “curve of compound”, the 50% inhibitory concentration (IC50) was above 10000 nM.
On to `O=c1[nH]cc(F)c(=O)[nH]1`, for which the viability, T/C (compound 0.0316 µM) is 83.7% and 97.8% and 96%; the viability, T/C (compound 0.1 µM) was 96.6% and 86.5% and 89.8%; the viability, T/C (compound 0.316 µM) is 68.4% and 54.6% and 65.8%; the viability, T/C (compound 1 µM) is 65.9% and 43.5% and 65.6%; the viability, T/C (compound 3.16 µM) is 63.8% and 43.7% and 60.7%; the viability, T/C (compound 10 µM) is 62.4% and 39.2% and 60.1%.
